# A flash point compilation (Sun et al. 2020)
row,Structure (SMILES),flash point
1,CC(C)CCOCCC(C)C [diisopentylether],46 °C
2,Cc1ccccc1F [2-fluorotoluene],12 °C
3,C/C=C/CC [trans-2-pentene],-45 °C
4,C#CCCCCCCCCCC [1-dodecyne],79 °C
5,CCOCc1ccccc1 [benzylethylether],59 °C
6,CCCCCC(C)CCC (centres undefined) [4-methylnonane],38 °C
7,C=CC1(C)CCC(=O)O1 (centres undefined) [4-methyl-4-vinylbutyrolactone],75 °C
8,CCOC(OCC)OCC [triethoxymethane],35 °C
9,CC[N+](=O)[O-] [nitroethane],28 °C
10,"CC(Cl)CCCl (centres undefined) [1,3-dichlorobutane]",31 °C
11,C=C(C)C(=O)OCCCC [butylmethacrylate],49 °C
12,CCCCC1CCCC1=O (centres undefined) [2-butylcyclopentanone],68 °C
13,C=CCCCCCCCCC [1-undecene],54 °C
14,C=Cc1ccc(C)cc1 [4-methylstyrene],46 °C
15,CSC [dimethylsulfide],-36 °C
16,CCC(=O)Cc1ccccc1 [1-phenyl-2-butanone],91 °C
17,CCC1CCCCC1 [ethylcyclohexane],18 °C
18,"C=C(C)CC(C)(C)C [2,4,4-trimethyl-1-pentene]",-4 °C
19,CCCCCOC(C)=O [pentylacetate],39 °C
20,"CCC(C)C(C)C(C)C (centres undefined) [2,3,4-trimethylhexane]",15 °C
21,"CC(C)CC(C)(C)C [2,2,4-trimethylpentane]",-7 °C
22,C=C(C)CO [2-methyl-2-propen-1-ol],33 °C
23,Clc1ccccn1 [2-chloropyridine],64 °C

row,Structure (SMILES),flash point
1,CCc1ccsc1 [3-ethylthiophene],23 °C
2,C=CCC(C)CC (centres undefined) [4-methyl-1-hexene],-15 °C
3,Cc1cccc(C)c1 [m-xylene],25 °C
4,CC(=O)OC(C)=O [aceticanhydride],49 °C
5,CCCCC#N [pentanenitrile],32 °C
6,Cc1cccc(Br)c1 [3-bromotoluene],75 °C
7,"CCC(C(C)C)C(C)C [3-ethyl-2,4-dimethylpentane]",15 °C
8,CC(C)NC(C)C [diisopropylamine],-7 °C
9,"CC(C)=C(C)C [2,3-dimethyl-2-butene]",-20 °C
10,CCc1ccccc1O [2-ethylphenol],85 °C
11,C=CC(=O)OCCCC [butylacrylate],37 °C
12,CCCCc1ccccc1 [butylbenzene],50 °C
13,CC=C(CC)CC [3-ethyl-2-pentene],-6 °C
14,CCCCC=O [pentanal],8 °C
15,"C[C@@H]1CCCC[C@@H]1C [cis-1,2-dimethylcyclohexane]",12 °C
16,CCCCCC(C)C [2-methylheptane],4 °C
17,CCC(C)O (centres undefined) [2-butanol],24 °C
18,CCCCCCCC#N [octanenitrile],74 °C
19,"CC1CC(C)(C)CC1=O (centres undefined) [2,4,4-trimethylcyclopentanone]",43 °C
20,C=COCC(C)C [isobutylvinylether],-9 °C
21,CCN(C)CC [N-ethyl-N-methylethanamine],-23 °C
22,CCCC#CCCCC [4-nonyne],35 °C
23,CCCCCCC#N [heptanenitrile],58 °C

row,Structure (SMILES),flash point
1,CCc1ccc(F)cc1 [1-ethyl-4-fluorobenzene],30 °C
2,Cc1ccccc1Cl [2-chlorotoluene],47 °C
3,CC(C)(C)SSC(C)(C)C [di-tert-butyldisulfide],67 °C
4,"CCC(Cl)Cl [1,1-dichloropropane]",7 °C
5,CCCCS [1-butanethiol],2 °C
6,"C=C(C)C(=C)C [2,3-dimethyl-1,3-butadiene]",-22 °C
7,CC1CCCC(=O)C1 (centres undefined) [3-methylcyclohexanone],48 °C
8,CCCC(=O)OCCC(C)C [isopentylbutanoate],59 °C
9,CCCCOC(=O)CCC [butylbutanoate],49 °C
10,CCCCCCCCCCOC=O [decylformate],100 °C
11,CC(C)C(C)S (centres undefined) [3-methyl-2-butanethiol],9 °C
12,ICc1ccccc1 [benzyliodide],97 °C
13,"C#CCCCC#C [1,6-heptadiyne]",9 °C
14,C=COC(C)(C)C [tert-butylvinylether],-17 °C
15,CC(C)(C)c1ccccc1 [tert-butylbenzene],44 °C
16,Cc1ccsc1 [3-methylthiophene],11 °C
17,C=CC(=O)O [acrylicacid],54 °C
18,CCCC(=O)OCC(C)C [isobutylbutanoate],46 °C
19,CCC(C)(C)OC [methyltert-pentylether],-7 °C
20,Ic1ccccc1 [iodobenzene],74 °C
21,CC1CCC(=O)CC1 [4-methylcyclohexanone],48 °C
22,C1CCCC1 [cyclopentane],-37 °C
23,CCCC(C)CO (centres undefined) [2-methyl-1-pentanol],51 °C

row,Structure (SMILES),flash point
1,"CC1(C)CCCC1 [1,1-dimethylcyclopentane]",-16 °C
2,C=CCSCC=C [diallylsulfide],23 °C
3,CCC(C)=O [2-butanone],-7 °C
4,CCCC(=O)OCc1ccccc1 [benzylbutanoate],107 °C
5,CCCCOC(=O)c1ccccc1 [butylbenzoate],107 °C
6,CCCC(C)C(=O)O (centres undefined) [2-methylpentanoicacid],91 °C
7,"C[C@H]1CCC[C@H](C)C1 (relative stereo) [trans-1,3-dimethylcyclohexane]",8 °C
8,Cc1cccs1 [2-methylthiophene],8 °C
9,CCOC(C)=O [ethylacetate],-4 °C
10,CCCCCCOC=O [hexylformate],44 °C
11,CCCSSCCC [dipropyldisulfide],66 °C
12,C=CCCBr [4-bromo-1-butene],9 °C
13,"CCC(C)CCCC(C)C (centres undefined) [2,6-dimethyloctane]",34 °C
14,CCCCCCCCCCC=O [undecanal],95 °C
15,CC(C)(C)C1CCCCC1=O (centres undefined) [2-tert-butylcyclohexanone],72 °C
16,CCCC(C)S (centres undefined) [2-pentanethiol],15 °C
17,NC1CCCC1 [cyclopentylamine],12 °C
18,"C1COCO1 [1,3-dioxolane]",-6 °C
19,CCOCCO [2-ethoxyethanol],42 °C
20,CC(C)C=O [2-methylpropanal],-19 °C
21,CCCCCCCCCOC=O [nonylformate],88 °C

# Remark: another data set of the same source
row,Structure (SMILES),flash point
1,CC1(C)C(C(=O)OC(C#N)c2cccc(Oc3ccccc3)c2)C1C(Br)C(Br)(Br)Br (centres undefined),26.00 °C
2,O=C(O)/C=C/C(=O)O [(E)-but-2-enedioic acid],273.00 °C
3,"CC(=O)C(C)(C)C [3,3-dimethylbutan-2-one]",5.00 °C
4,CNC(=O)CSP(=S)(OC)OC [2-dimethoxyphosphinothioylsulfanyl-N-methylacetamide],51.00 °C
5,CCC(=O)CC [pentan-3-one],13.00 °C
6,c1ccc(Nc2ccccc2)cc1 [N-phenylaniline],153.00 °C
7,Nc1ccc(Cl)cc1 [4-chloroaniline],113.00 °C
8,CCCCC(=O)CCCC [nonan-5-one],60.00 °C
9,CCCCCCCCCCCCCCCCCC(=O)OCCCC [butyl octadecanoate],160.00 °C
10,O.c1cc[c]([Sn]([c]2ccccc2)[c]2ccccc2)cc1 [triphenyltin;hydrate],400.00 °C
11,CCCCCCCCC [nonane],31.00 °C
12,CC(C)CC(C)C(C)C.CCCC(C)CC(C)C.CCCCC(C)C(C)C (centres undefined),24.00 °C
13,CCCCOCCOCCSC#N [2-(2-butoxyethoxy)ethyl thiocyanate],52.00 °C
14,CCOP(=S)(Oc1ccc([N+](=O)[O-])cc1)c1ccccc1 (centres undefined),30.00 °C
15,"Nc1ccc(Nc2ccccc2)cc1 [4-N-phenylbenzene-1,4-diamine]",193.00 °C
16,"Clc1c(Cl)c(Cl)c(Cl)c(Cl)c1Cl [1,2,3,4,5,6-hexachlorobenzene]",242.00 °C
17,C1CCCNCC1 [azepane],37.00 °C
18,C=CC(=O)OCCN(CC)CC [2-(diethylamino)ethyl prop-2-enoate],91.00 °C
19,CCC(O)OCCCOC (centres undefined) [1-(3-methoxypropoxy)propan-1-ol],74.00 °C
20,O=C1CCCC1 [cyclopentanone],30.00 °C
21,CC(C)(C)OCC1CO1 (centres undefined) [2-[(2-methylpropan-2-yl)oxymethyl]oxirane],43.00 °C
22,CSCCC(O)C(=O)O (centres undefined) [2-hydroxy-4-methylsulfanylbutanoic acid],121.00 °C
23,"c1ccc2c(c1)CCCC2 [1,2,3,4-tetrahydronaphthalene]",80.00 °C
24,COP(=S)(OC)Oc1ccc(SC)c(C)c1,170.00 °C
25,CCOC(=O)C1CC(=O)C(=C(O)C2CC2)C(=O)C1 (centres undefined),133.00 °C
26,CC(N)Cc1ccccc1 (centres undefined) [1-phenylpropan-2-amine],27.00 °C
27,O=C(O)c1ccccc1C(=O)O [phthalic acid],168.00 °C
28,CCCCCCCCCCCCCCCCCCCCC [henicosane],113.00 °C
29,"[C-]1=CC=CC1.[C-]1=CC=CC1.[Ni+2] [cyclopenta-1,3-diene;nickel(2+)]",4.00 °C
